Numbers after ± are expanded uncertainties.
Conditions: Crystal; DTA

Normal melting temperature | SMILES
51.1 ± 0.5 °C | CC(C)Cc1ccc([C@H](C)C(=O)O)cc1 [(S)-2-(4-isobutylphenyl)propanoic acid]
76.1 ± 0.5 °C | CC(C)Cc1ccc(C(C)C(=O)O)cc1 (configuration not stated) [ibuprofen]

Reference: the NIST ThermoML archive (doi:10.1021/je034228o)
